Source: publication PMC12748989 (Nature Communications, 2025)

Assays:
PBMC = conditions: 12.5 µM

Row | Compound | Average (percentage cell inhibition), Dmastoparan MDA-MB231 12.5uM (MDA-MB-231 cells) | Average (percentage cell inhibition), Mastoparan PBMC (PBMC)
1 | CC[C@H](C)[C@H](N)C(=O)N[C@@H](CC(N)=O)C(=O)N[C@@H](CC(C)C)C(=O)N[C@@H](CCCCN)C(=O)N[C@@H](C)C(=O)N[C@@H](CC(C)C)C(=O)N[C@@H](C)C(=O)N[C@@H](C)C(=O)N[C@@H](CC(C)C)C(=O)N[C@@H](C)C(=O)N[C@H](C(=O)N[C@@H](CCCCN)C(=O)N[C@H](C(=O)N[C@@H](CC(C)C)C(N)=O)[C@@H](C)CC)[C@@H](C)CC [I11] | 36.5354% | 5.295%
2 | CC[C@H](C)[C@H](N)C(=O)N[C@@H](CC(N)=O)C(=O)N[C@@H](CC(C)C)C(=O)N[C@@H](CCCCN)C(=O)N[C@@H](C)C(=O)N[C@@H](CC(C)C)C(=O)N[C@@H](C)C(=O)N[C@@H](C)C(=O)N[C@@H](CC(C)C)C(=O)N[C@@H](C)C(=O)N[C@@H](CCCCN)C(=O)N[C@@H](CCCCN)C(=O)N[C@H](C(=O)N1CCC[C@H]1C(N)=O)[C@@H](C)CC [P14] | 0.693% | -11.4473%
3 | CC[C@H](C)[C@H](N)C(=O)N[C@@H](CC(N)=O)C(=O)N[C@@H](CC(C)C)C(=O)N[C@@H](CCCCN)C(=O)N[C@H](C(=O)N[C@@H](CC(C)C)C(=O)N[C@@H](C)C(=O)N[C@@H](C)C(=O)N[C@@H](CC(C)C)C(=O)N[C@@H](C)C(=O)N[C@@H](CCCCN)C(=O)N[C@@H](CCCCN)C(=O)N[C@H](C(=O)N[C@@H](CC(C)C)C(N)=O)[C@@H](C)CC)C(C)C [V5] | 36.2551% | 6.235%
4 | CC[C@H](C)[C@H](N)C(=O)N[C@@H](CC(N)=O)C(=O)N[C@@H](CC(C)C)C(=O)N[C@@H](CCCCN)C(=O)N[C@@H](C)C(=O)N[C@@H](CC(C)C)C(=O)N[C@@H](C)C(=O)N[C@@H](C)C(=O)N[C@@H](CC(C)C)C(=O)N[C@@H](C)C(=O)N[C@@H](CCCCN)C(=O)N[C@@H](CCCCN)C(=O)N[C@H](C(=O)N[C@@H](CC(N)=O)C(N)=O)[C@@H](C)CC [N14] | -1.851% | 9.15%
5 | CC[C@H](C)[C@H](N)C(=O)N[C@@H](CC(N)=O)C(=O)N[C@@H](CC(C)C)C(=O)N[C@@H](CCCCN)C(=O)N[C@@H](C)C(=O)N[C@@H](CC(C)C)C(=O)N[C@@H](CCCCN)C(=O)N[C@@H](C)C(=O)N[C@@H](CC(C)C)C(=O)N[C@@H](C)C(=O)N[C@@H](CCCCN)C(=O)N[C@@H](CCCCN)C(=O)N[C@H](C(=O)N[C@@H](CC(C)C)C(N)=O)[C@@H](C)CC [K7] | 38.2404% | 5.806%
6 | CC[C@H](C)[C@H](N)C(=O)N[C@@H](CCC(N)=O)C(=O)N[C@@H](CC(C)C)C(=O)N[C@@H](CCCCN)C(=O)N[C@@H](C)C(=O)N[C@@H](CC(C)C)C(=O)N[C@@H](C)C(=O)N[C@@H](C)C(=O)N[C@@H](CC(C)C)C(=O)N[C@@H](C)C(=O)N[C@@H](CCCCN)C(=O)N[C@@H](CCCCN)C(=O)N[C@H](C(=O)N[C@@H](CC(C)C)C(N)=O)[C@@H](C)CC [Q2] | 33.3572% | 13.2802%
7 | CC[C@H](C)[C@H](N)C(=O)N[C@@H](CC(N)=O)C(=O)N[C@@H](CC(C)C)C(=O)N[C@@H](CCCCN)C(=O)N[C@@H](C)C(=O)N[C@@H](CC(C)C)C(=O)N[C@@H](C)C(=O)N[C@@H](C)C(=O)N[C@@H](CC(C)C)C(=O)N[C@@H](C)C(=O)N[C@@H](CCCCN)C(=O)N[C@@H](CCCCN)C(=O)NCC(=O)N[C@@H](CC(C)C)C(N)=O [G13] | 23.4491% | 6.832%
8 | CC[C@H](C)[C@H](N)C(=O)N[C@@H](CC(N)=O)C(=O)N[C@@H](CC(C)C)C(=O)N[C@@H](CCCCN)C(=O)N[C@@H](C)C(=O)N[C@@H](CC(C)C)C(=O)N[C@@H](C)C(=O)N[C@@H](C)C(=O)N[C@@H](CC(C)C)C(=O)N[C@@H](C)C(=O)N[C@@H](CCCCN)C(=O)N[C@@H](CCCCN)C(=O)N[C@@H](CC(N)=O)C(=O)N[C@@H](CC(C)C)C(N)=O [N13] | 29.0846% | 7.072%
9 | CC[C@H](C)[C@H](N)C(=O)N[C@H](C(=O)N[C@@H](CC(C)C)C(=O)N[C@@H](CCCCN)C(=O)N[C@@H](C)C(=O)N[C@@H](CC(C)C)C(=O)N[C@@H](C)C(=O)N[C@@H](C)C(=O)N[C@@H](CC(C)C)C(=O)N[C@@H](C)C(=O)N[C@@H](CCCCN)C(=O)N[C@@H](CCCCN)C(=O)N[C@H](C(=O)N[C@@H](CC(C)C)C(N)=O)[C@@H](C)CC)[C@@H](C)O [T2] | 59.8803% | 20.7916%
10 | CC[C@H](C)[C@H](N)C(=O)N[C@@H](CC(N)=O)C(=O)N[C@@H](CC(C)C)C(=O)N[C@@H](CCCCN)C(=O)N[C@@H](C)C(=O)N[C@@H](CC(N)=O)C(=O)N[C@@H](C)C(=O)N[C@@H](C)C(=O)N[C@@H](CC(C)C)C(=O)N[C@@H](C)C(=O)N[C@@H](CCCCN)C(=O)N[C@@H](CCCCN)C(=O)N[C@H](C(=O)N[C@@H](CC(C)C)C(N)=O)[C@@H](C)CC [N6] | 7.402% | 6.768%
11 | CC[C@H](C)[C@H](N)C(=O)N[C@@H](CC(N)=O)C(=O)N[C@@H](CC(C)C)C(=O)N[C@@H](CCCCN)C(=O)N[C@@H](C)C(=O)N[C@@H](CC(C)C)C(=O)N[C@@H](C)C(=O)N[C@@H](C)C(=O)NCC(=O)N[C@@H](C)C(=O)N[C@@H](CCCCN)C(=O)N[C@@H](CCCCN)C(=O)N[C@H](C(=O)N[C@@H](CC(C)C)C(N)=O)[C@@H](C)CC [G9] | 11.2187% | 7.302%
12 | CC[C@H](C)[C@H](N)C(=O)N[C@@H](CC(N)=O)C(=O)N[C@@H](CC(C)C)C(=O)N[C@@H](CCCCN)C(=O)N[C@@H](C)C(=O)N[C@@H](CC(C)C)C(=O)N[C@@H](C)C(=O)N[C@@H](CO)C(=O)N[C@@H](CC(C)C)C(=O)N[C@@H](C)C(=O)N[C@@H](CCCCN)C(=O)N[C@@H](CCCCN)C(=O)N[C@H](C(=O)N[C@@H](CC(C)C)C(N)=O)[C@@H](C)CC [S8] | 32.8816% | -6.033%
13 | CC[C@H](C)[C@H](N)C(=O)N[C@@H](CC(N)=O)C(=O)N[C@@H](CC(C)C)C(=O)N[C@H](C(=O)N[C@@H](C)C(=O)N[C@@H](CC(C)C)C(=O)N[C@@H](C)C(=O)N[C@@H](C)C(=O)N[C@@H](CC(C)C)C(=O)N[C@@H](C)C(=O)N[C@@H](CCCCN)C(=O)N[C@@H](CCCCN)C(=O)N[C@H](C(=O)N[C@@H](CC(C)C)C(N)=O)[C@@H](C)CC)C(C)C [V4] | 32.9047% | 3.317%
14 | CC[C@H](C)[C@H](N)C(=O)N[C@@H](CC(N)=O)C(=O)N[C@@H](CC(C)C)C(=O)N[C@@H](CCCCN)C(=O)N[C@@H](C)C(=O)N[C@@H](CC(C)C)C(=O)N[C@@H](C)C(=O)N[C@@H](C)C(=O)N[C@@H](CC(C)C)C(=O)N[C@@H](C)C(=O)N[C@@H](Cc1c[nH]c2ccccc12)C(=O)N[C@@H](CCCCN)C(=O)N[C@H](C(=O)N[C@@H](CC(C)C)C(N)=O)[C@@H](C)CC [W11] | 74.1582% | 64.4734%
15 | CC[C@H](C)[C@H](N)C(=O)N[C@@H](CC(N)=O)C(=O)N[C@@H](CC(C)C)C(=O)N[C@@H](CCCCN)C(=O)N[C@@H](C)C(=O)N[C@@H](CCC(N)=O)C(=O)N[C@@H](C)C(=O)N[C@@H](C)C(=O)N[C@@H](CC(C)C)C(=O)N[C@@H](C)C(=O)N[C@@H](CCCCN)C(=O)N[C@@H](CCCCN)C(=O)N[C@H](C(=O)N[C@@H](CC(C)C)C(N)=O)[C@@H](C)CC [Q6] | -10.4473% | -3.273%
16 | CC[C@H](C)[C@H](N)C(=O)N[C@@H](CC(N)=O)C(=O)N[C@@H](CCC(=O)O)C(=O)N[C@@H](CCCCN)C(=O)N[C@@H](C)C(=O)N[C@@H](CC(C)C)C(=O)N[C@@H](C)C(=O)N[C@@H](C)C(=O)N[C@@H](CC(C)C)C(=O)N[C@@H](C)C(=O)N[C@@H](CCCCN)C(=O)N[C@@H](CCCCN)C(=O)N[C@H](C(=O)N[C@@H](CC(C)C)C(N)=O)[C@@H](C)CC [E3] | 14.5974% | 5.899%
17 | CC[C@H](C)[C@H](NC(=O)[C@H](CCCCN)NC(=O)[C@H](CCCCN)NC(=O)[C@H](C)NC(=O)[C@H](CC(C)C)NC(=O)[C@H](C)NC(=O)[C@H](C)NC(=O)[C@H](CC(C)C)NC(=O)[C@H](C)NC(=O)[C@H](CCCCN)NC(=O)[C@H](CC(C)C)NC(=O)[C@H](CC(N)=O)NC(=O)[C@@H](N)Cc1ccc(O)cc1)C(=O)N[C@@H](CC(C)C)C(N)=O [Y1] | 48.2987% | 14.8394%
18 | CC[C@H](C)[C@H](N)C(=O)N[C@@H](CC(N)=O)C(=O)N[C@@H](CC(C)C)C(=O)N[C@@H](CCCCN)C(=O)N[C@@H](C)C(=O)N[C@@H](CC(C)C)C(=O)N[C@@H](C)C(=O)N[C@@H](C)C(=O)N[C@@H](CC(C)C)C(=O)N[C@@H](C)C(=O)N[C@H](C(=O)N[C@@H](CCCCN)C(=O)N[C@H](C(=O)N[C@@H](CC(C)C)C(N)=O)[C@@H](C)CC)[C@@H](C)O [T11] | 32.1267% | 10.2886%
19 | CC[C@H](C)[C@H](N)C(=O)N[C@@H](CC(N)=O)C(=O)N[C@@H](CC(C)C)C(=O)N[C@@H](CCCCN)C(=O)N[C@@H](C)C(=O)N[C@@H](CC(C)C)C(=O)NCC(=O)N[C@@H](C)C(=O)N[C@@H](CC(C)C)C(=O)N[C@@H](C)C(=O)N[C@@H](CCCCN)C(=O)N[C@@H](CCCCN)C(=O)N[C@H](C(=O)N[C@@H](CC(C)C)C(N)=O)[C@@H](C)CC [G7] | 49.0864% | 11.7718%
